Experimental data: ChEMBL document CHEMBL1132539 (J Med Chem, 1999)
pKi: −log10 of the molar value.

What was measured:
Glutamyl aminopeptidase = Glutamyl aminopeptidase (Homo sapiens, UniProt Q07075); experiment: Binding affinity against recombinant Aminopeptidase A
Aminopeptidase N = target: T1, Aminopeptidase N (Sus scrofa, UniProt P15145)
T1 sequence (P15145 whole entry): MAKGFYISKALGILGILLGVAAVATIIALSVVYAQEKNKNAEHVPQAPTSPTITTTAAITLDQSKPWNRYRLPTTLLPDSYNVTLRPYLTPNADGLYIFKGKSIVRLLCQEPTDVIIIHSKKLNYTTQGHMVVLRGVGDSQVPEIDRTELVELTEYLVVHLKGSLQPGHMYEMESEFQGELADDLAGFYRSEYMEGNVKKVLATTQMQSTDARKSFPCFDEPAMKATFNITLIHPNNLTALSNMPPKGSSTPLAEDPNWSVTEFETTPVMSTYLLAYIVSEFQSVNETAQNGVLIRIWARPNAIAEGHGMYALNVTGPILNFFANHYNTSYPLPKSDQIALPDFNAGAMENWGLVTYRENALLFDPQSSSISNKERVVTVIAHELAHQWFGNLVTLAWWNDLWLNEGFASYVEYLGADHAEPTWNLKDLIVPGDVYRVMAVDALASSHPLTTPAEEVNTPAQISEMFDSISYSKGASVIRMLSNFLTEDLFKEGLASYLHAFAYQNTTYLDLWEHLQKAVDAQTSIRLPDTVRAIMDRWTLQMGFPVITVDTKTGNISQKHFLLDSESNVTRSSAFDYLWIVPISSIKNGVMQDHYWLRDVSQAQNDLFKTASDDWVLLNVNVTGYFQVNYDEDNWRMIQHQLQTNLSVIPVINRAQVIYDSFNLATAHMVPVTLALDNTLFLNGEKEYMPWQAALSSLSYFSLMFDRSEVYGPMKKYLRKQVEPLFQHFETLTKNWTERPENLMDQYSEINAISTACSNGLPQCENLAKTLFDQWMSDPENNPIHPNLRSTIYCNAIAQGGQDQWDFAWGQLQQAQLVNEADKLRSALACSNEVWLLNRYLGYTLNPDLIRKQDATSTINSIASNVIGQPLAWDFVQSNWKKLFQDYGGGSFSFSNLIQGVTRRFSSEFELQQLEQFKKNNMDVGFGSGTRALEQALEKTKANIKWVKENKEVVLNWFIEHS
Description: Binding affinity against aminopeptidase N from pig kidney

[1] = target: T2, Angiotensin-converting enzyme (Rattus norvegicus, UniProt P47820); experiment: Binding affinity against Angiotensin I converting enzyme from rat testis
T2 sequence (P47820 whole entry): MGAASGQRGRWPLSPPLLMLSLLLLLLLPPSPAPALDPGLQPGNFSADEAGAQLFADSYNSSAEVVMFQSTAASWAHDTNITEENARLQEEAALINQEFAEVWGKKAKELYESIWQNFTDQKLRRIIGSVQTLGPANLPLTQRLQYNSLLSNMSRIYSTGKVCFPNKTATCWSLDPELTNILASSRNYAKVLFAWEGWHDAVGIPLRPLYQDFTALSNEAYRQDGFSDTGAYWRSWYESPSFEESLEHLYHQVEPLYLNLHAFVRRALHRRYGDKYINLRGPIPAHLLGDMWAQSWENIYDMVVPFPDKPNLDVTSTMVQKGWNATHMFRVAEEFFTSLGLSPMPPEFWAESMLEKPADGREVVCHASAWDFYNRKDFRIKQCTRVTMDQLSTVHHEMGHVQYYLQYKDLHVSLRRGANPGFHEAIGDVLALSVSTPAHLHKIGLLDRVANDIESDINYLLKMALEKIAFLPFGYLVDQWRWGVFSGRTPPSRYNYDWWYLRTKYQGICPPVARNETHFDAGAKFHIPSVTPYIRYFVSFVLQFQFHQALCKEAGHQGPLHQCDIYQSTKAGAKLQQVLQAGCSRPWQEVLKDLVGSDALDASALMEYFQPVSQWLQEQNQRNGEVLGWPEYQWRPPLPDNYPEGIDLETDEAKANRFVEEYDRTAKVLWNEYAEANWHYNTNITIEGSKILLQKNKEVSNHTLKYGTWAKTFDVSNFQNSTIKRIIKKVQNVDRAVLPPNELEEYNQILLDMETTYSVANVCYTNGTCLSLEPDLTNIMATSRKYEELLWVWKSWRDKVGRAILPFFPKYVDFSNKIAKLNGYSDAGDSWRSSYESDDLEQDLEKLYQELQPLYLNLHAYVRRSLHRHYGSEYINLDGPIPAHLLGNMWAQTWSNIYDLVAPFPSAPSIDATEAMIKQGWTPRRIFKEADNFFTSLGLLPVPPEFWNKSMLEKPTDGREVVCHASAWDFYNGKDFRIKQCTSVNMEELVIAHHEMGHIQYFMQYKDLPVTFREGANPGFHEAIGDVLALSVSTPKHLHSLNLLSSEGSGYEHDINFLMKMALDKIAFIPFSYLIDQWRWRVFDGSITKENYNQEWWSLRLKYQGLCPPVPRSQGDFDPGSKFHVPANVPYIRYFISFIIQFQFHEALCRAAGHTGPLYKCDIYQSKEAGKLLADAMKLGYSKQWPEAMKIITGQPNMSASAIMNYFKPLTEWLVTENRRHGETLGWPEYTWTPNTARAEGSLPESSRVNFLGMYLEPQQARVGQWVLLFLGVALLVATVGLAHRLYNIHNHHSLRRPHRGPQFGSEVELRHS

Neprilysin = target: T3, Neprilysin (Oryctolagus cuniculus, UniProt P08049); experiment: Binding affinity against NEP from rabbit kidney(neutral endopeptidase)
T3 sequence (P08049 whole entry): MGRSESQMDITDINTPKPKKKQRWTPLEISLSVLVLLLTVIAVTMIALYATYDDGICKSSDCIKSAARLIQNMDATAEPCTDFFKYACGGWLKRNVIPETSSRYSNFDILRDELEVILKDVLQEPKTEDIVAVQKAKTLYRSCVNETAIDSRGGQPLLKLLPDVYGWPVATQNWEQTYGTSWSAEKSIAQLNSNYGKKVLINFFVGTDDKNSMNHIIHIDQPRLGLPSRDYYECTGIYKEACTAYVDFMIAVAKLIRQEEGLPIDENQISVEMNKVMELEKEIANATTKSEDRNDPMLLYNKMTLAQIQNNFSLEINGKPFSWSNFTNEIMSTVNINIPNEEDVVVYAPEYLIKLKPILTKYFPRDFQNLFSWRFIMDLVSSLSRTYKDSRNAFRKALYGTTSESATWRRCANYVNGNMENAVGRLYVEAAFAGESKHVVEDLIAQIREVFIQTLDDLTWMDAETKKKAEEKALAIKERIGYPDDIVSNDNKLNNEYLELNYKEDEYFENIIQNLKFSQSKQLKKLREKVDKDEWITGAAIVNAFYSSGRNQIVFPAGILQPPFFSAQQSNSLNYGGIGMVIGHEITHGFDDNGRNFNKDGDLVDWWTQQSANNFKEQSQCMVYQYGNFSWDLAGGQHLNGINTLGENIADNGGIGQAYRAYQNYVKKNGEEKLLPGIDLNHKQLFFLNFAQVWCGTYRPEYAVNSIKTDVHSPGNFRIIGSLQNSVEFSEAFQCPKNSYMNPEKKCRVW

Sequence of Glutamyl aminopeptidase (Q07075 whole entry): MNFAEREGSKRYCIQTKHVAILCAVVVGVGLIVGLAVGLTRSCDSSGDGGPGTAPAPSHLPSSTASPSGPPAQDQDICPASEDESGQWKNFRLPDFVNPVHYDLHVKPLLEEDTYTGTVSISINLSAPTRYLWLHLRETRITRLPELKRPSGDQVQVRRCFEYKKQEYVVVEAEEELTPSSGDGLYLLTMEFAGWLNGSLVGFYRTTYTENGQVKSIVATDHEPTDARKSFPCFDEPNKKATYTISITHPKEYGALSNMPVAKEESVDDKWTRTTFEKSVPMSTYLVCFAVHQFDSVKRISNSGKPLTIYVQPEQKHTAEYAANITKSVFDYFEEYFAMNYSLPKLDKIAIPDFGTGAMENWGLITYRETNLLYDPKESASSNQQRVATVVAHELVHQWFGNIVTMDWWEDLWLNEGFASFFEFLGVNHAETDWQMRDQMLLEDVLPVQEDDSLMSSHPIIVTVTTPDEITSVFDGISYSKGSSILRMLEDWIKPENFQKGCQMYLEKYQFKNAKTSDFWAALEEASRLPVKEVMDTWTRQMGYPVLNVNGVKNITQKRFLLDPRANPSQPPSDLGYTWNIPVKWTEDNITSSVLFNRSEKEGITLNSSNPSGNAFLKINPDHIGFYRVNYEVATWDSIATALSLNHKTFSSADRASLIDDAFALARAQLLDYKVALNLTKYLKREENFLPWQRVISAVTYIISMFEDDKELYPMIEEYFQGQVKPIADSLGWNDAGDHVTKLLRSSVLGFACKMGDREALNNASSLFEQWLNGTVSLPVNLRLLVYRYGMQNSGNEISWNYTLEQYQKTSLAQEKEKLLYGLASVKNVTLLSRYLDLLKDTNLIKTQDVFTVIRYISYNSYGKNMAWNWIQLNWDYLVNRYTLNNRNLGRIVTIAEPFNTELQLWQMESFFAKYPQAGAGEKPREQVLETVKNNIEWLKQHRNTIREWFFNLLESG

SMILES | pKi (Glutamyl aminopeptidase) | pKi (Aminopeptidase N) | pKi [1] | pKi (Neprilysin)
CC[C@@H](C)[C@H](NC(=O)[C@@H](S)[C@H](N)CCC(=O)O)C(=O)N[C@@H](CC(=O)O)C(=O)O | 6.57 | < 5.00 |  | 
CC[C@@H](C)[C@H](NC(=O)[C@@H](S)[C@H](N)CCS(=O)(=O)O)C(N)=O | 5.38 | < 5.00 |  | 
CC[C@@H](C)[C@H](NC(=O)[C@H](S)[C@H](N)CCC(=O)O)C(=O)N[C@@H](CC(=O)O)C(=O)O | 8.45 | < 5.00 | 5.74 | 8.40
CC[C@@H](C)[C@H](NC(=O)C(S)C(N)CCS(N)(=O)=O)C(=O)N[C@@H](CC(=O)O)C(=O)O (some centres undefined) | 7.10 | 4.55 |  | 
CC[C@@H](C)[C@H](NCC(S)C(N)CCS(N)(=O)=O)C(=O)N[C@@H](CC(=O)O)C(=O)O (some centres undefined) | 7.29 | 5.47 |  | 
CC[C@@H](C)[C@H](NC(=O)[C@@H](S)[C@@H](N)CCC(=O)O)C(=O)N[C@@H](CC(=O)O)C(=O)O | 7.80 | 5.41 |  | 
N[C@H](CCS(=O)(=O)O)[C@H](S)C(=O)N[C@@H](Cc1ccc(O)cc1)C(=O)N[C@@H](CC(=O)O)C(=O)O | 7.57 | 4.32 |  | 
NC(CCS(N)(=O)=O)C(S)C(=O)N[C@@H](Cc1ccc(O)cc1)C(=O)N[C@@H](CC(=O)O)C(=O)O (some centres undefined) | 6.82 | 5.15 |  | 
CC[C@@H](C)[C@H](NC(=O)[C@H](S)[C@H](N)CCS(=O)(=O)O)C(N)=O | 6.84 | < 5.00 |  | 
CC[C@@H](C)[C@H](NC(=O)[C@H](S)[C@H](N)CCS(=O)(=O)O)C(=O)N[C@@H](CS(=O)(=O)O)C(=O)O | 8.44 |  | 5.92 | 7.77
CC[C@@H](C)[C@H](NC(=O)[C@H](S)[C@@H](N)CCC(=O)O)C(=O)N[C@@H](CC(=O)O)C(=O)O | 7.89 | 6.92 |  | 
N[C@H](CCS(=O)(=O)O)[C@H](S)C(=O)N[C@@H](Cc1ccc(O)cc1)C(=O)N[C@@H](CCS(=O)(=O)O)C(=O)O | 7.13 |  |  | 
CC[C@@H](C)[C@H](NC(=O)[C@@H](S)[C@H](N)CCS(=O)(=O)O)C(=O)N[C@@H](CS(=O)(=O)O)C(=O)O | 7.08 |  |  | 
N[C@H](CCS(=O)(=O)O)[C@@H](S)C(=O)N[C@@H](Cc1ccc(O)cc1)C(=O)N[C@@H](CCS(=O)(=O)O)C(=O)O | 8.03 |  | 6.18 | 6.28
N[C@H](CCS(=O)(=O)O)[C@@H](S)C(=O)N[C@@H](Cc1ccc(O)cc1)C(=O)N[C@@H](CC(=O)O)C(=O)O | 8.37 | 4.51 | 5.74 | 7.47
CC[C@@H](C)[C@H](NC(=O)[C@H](S)[C@H](N)CCP(=O)(O)O)C(=O)N[C@@H](CC(=O)O)C(=O)O | 7.92 | < 5.00 | 5.66 | 8.27
CC[C@@H](C)[C@H](NC(=O)[C@@H](S)[C@H](N)CCP(=O)(O)O)C(=O)N[C@@H](CC(=O)O)C(=O)O | 6.04 | < 5.00 |  | 

More lines, now with the values ahead:

pKi (Glutamyl aminopeptidase) | pKi (Aminopeptidase N) | pKi [1] | pKi (Neprilysin) | SMILES
6.62 |  |  |  | CC[C@@H](C)[C@H](NC(=O)[C@@H](S)[C@H](N)CCS(=O)(=O)O)C(=O)N1CCC(C(=O)O)[C@@H]1C(=O)O (some centres undefined)
8.42 |  | 5.96 | 6.28 | CC[C@@H](C)[C@H](NC(=O)[C@H](S)[C@H](N)CCS(=O)(=O)O)C(=O)N1CCC(C(=O)O)[C@@H]1C(=O)O (some centres undefined)
8.49 | < 4.00 | 5.92 | 7.66 | CC[C@@H](C)[C@H](NC(=O)[C@H](S)[C@H](N)CCS(=O)(=O)O)C(=O)N[C@@H](CC(=O)O)C(=O)O
7.83 | < 4.00 |  |  | CC[C@H](C)[C@@H](NC(=O)[C@H](S)[C@H](N)CCS(=O)(=O)O)C(=O)N[C@@H](CC(=O)O)C(=O)O
6.53 | < 4.00 |  |  | CC[C@H](C)[C@@H](NC(=O)[C@@H](S)[C@H](N)CCS(=O)(=O)O)C(=O)N[C@@H](CC(=O)O)C(=O)O
5.92 | < 5.00 |  |  | CC[C@@H](C)[C@H](NC(=O)[C@@H](S)[C@H](N)CCS(=O)(=O)O)C(=O)O
6.96 |  |  |  | CC[C@@H](C)[C@H](NC(=O)[C@@H](S)[C@H](N)CCS(=O)(=O)O)C(=O)N1CCC(C(=O)O)[C@H]1C(=O)O (some centres undefined)
8.27 | < 4.00 |  |  | CC[C@@H](C)[C@H](NC(=O)[C@H](S)[C@H](N)CCS(=O)(=O)O)C(=O)N[C@H](CC(=O)O)C(=O)O
9.06 |  | 6.59 | 6.66 | CC[C@@H](C)[C@H](NC(=O)[C@H](S)[C@H](N)CCS(=O)(=O)O)C(=O)N1CCC(C(=O)O)[C@H]1C(=O)O (some centres undefined)
7.82 | 4.36 |  |  | CC[C@@H](C)[C@H](NC(=O)[C@H](S)[C@H](N)CCS(=O)(=O)O)C(=O)N[C@@H](CC(=O)O)C(N)=O
6.33 | 4.29 |  |  | CC[C@@H](C)[C@H](NC(=O)[C@@H](S)[C@H](N)CCS(=O)(=O)O)C(=O)N[C@@H](CC(=O)O)C(N)=O
7.28 | < 4.00 |  |  | CC[C@@H](C)[C@H](NC(=O)[C@@H](S)[C@H](N)CCS(=O)(=O)O)C(=O)N[C@@H](CC(=O)O)C(=O)O
7.40 | < 5.00 |  |  | CC[C@@H](C)[C@H](NC(=O)[C@H](S)[C@H](N)CCS(=O)(=O)O)C(=O)O
6.55 | < 4.00 |  |  | CC[C@@H](C)[C@H](NC(=O)[C@@H](S)[C@H](N)CCS(=O)(=O)O)C(=O)N[C@H](CC(=O)O)C(=O)O
7.30 | < 4.00 |  |  | CC[C@@H](C)[C@H](NC(=O)[C@@H](S)[C@@H](N)CCS(=O)(=O)O)C(=O)N[C@@H](CC(=O)O)C(=O)O
7.70 | 4.64 |  |  | CC[C@@H](C)[C@H](NC(=O)[C@H](S)[C@@H](N)CCS(=O)(=O)O)C(=O)N[C@@H](CC(=O)O)C(=O)O
